Test results taken from US11046680B1, “Heteroaryl-substituted triazoles as APJ receptor agonists” (priority 2016, dated 2021).

Target: human APJ receptor (Homo sapiens (Human), UniProt P35414)
Experiment: biochemical
Assay type: biochemical
Conditions: [35S]GTPγS binding, CHO membranes expressing human APJ receptor; read-out: Activity hAPJ SPA EC50 IP
How it was run: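 GTPγS binding on membranes from CHO cells stably expressing FLAG-tagged human APJ, with optimized GDP, MgCl2 and NaCl; incubated 90 min at RT before imaging read-out.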

human APJ receptor, sequence (P35414 whole entry): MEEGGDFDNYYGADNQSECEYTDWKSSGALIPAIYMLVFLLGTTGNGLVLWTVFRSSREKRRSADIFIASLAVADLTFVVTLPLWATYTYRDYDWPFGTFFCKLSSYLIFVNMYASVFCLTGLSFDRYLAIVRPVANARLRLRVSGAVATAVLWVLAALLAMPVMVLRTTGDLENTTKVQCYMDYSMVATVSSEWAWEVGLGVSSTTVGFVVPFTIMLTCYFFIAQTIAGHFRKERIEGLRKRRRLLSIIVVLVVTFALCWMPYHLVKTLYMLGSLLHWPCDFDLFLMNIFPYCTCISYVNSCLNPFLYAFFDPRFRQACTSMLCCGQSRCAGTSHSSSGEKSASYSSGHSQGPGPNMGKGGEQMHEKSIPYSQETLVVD

| Compound | EC50 [nM] |
| --- | --- |
| COc1cccc(OC)c1-n1c(NS(=O)(=O)CCc2ccc(F)cc2Br)nnc1-c1nccs1 [Example 140.0, 2-(2-bromo-4-fluorophenyl)-N-(4-(2,6-dimethoxyphenyl)-5-(thiazol-2-yl)-4H-1,2,4-triazol-3-yl)ethanesulfonamide] | 24.5 |
| COc1cccc(OC)c1-n1c(NS(=O)(=O)C[C@H](OC)c2ccc(F)cc2S(C)(=O)=O)nnc1-c1ccn(C)n1 (single isomer, unassigned) [Example 372.0, (R)-N-(4-(2,6-Dimethoxyphenyl)-5-(1-methyl-1H-pyrazol-3-yl)-4H-1,2,4-triazol-3-yl)-2-(4-fluoro-2-(methylsulfonyl)phenyl)-2-methoxyethanesulfonamide or (S)-N-(4-(2,6-dimethoxyphenyl)-5-(1-methyl-1H-pyrazol-3-yl)-4H-1,2,4-triazol-3-yl)-2-(4-fluoro-2-(methylsulfonyl)phenyl)-2-methoxyethanesulfonamide] | 1.4 |
| COc1cccc(OC)c1-n1c(NS(=O)(=O)[C@@H](C)[C@H](OC)c2ncc(C)cn2)nnc1-c1ccn(C(F)F)n1 [Example 203.0, (1R,2S)-N-(5-(1-(difluoromethyl)-1H-pyrazol-3-yl)-4-(2,6-dimethoxyphenyl)-4H-1,2,4-triazol-3-yl)-1-methoxy-1-(5-methyl-2-pyrimidinyl)-2-propanesulfonamide] | 2.1 |
| COc1ccc(N2CCC2=O)cc1-n1c(NS(=O)(=O)CCc2ccc(F)cc2C#N)nnc1-c1cccs1 [Example 132.0, 2-(2-Cyano-4-fluorophenyl)-N-(4-(2-methoxy-5-(2-oxoazetidin-1-yl)phenyl)-5-(thiophen-2-yl)-4H-1,2,4-triazol-3-yl)ethanesulfonamide] | 0.24 |
| COc1cccc(OC)c1-n1c(NS(=O)(=O)[C@@H](C)[C@H](OC)c2ncc(C)cn2)nnc1-c1ncc(C)s1 [Example 331.0, (1R,2S)-N-(4-(2,6-Dimethoxyphenyl)-5-(5-methyl-1,3-thiazol-2-yl)-4H-1,2,4-triazol-3-yl)-1-methoxy-1-(5-methyl-2-pyrimidinyl)-2-propanesulfonamide] | 0.98 |
| COc1cccc(OC)c1-n1c(NS(=O)(=O)[C@H](C)[C@@H](OC)c2ncc(F)cn2)nnc1-c1ccn(C)n1 (single isomer, unassigned) [Example 117.0, (1S,2R)-N-(4-(2,6-dimethoxyphenyl)-5-(1-methyl-1H-pyrazol-3-yl)-4H-1,2,4-triazol-3-yl)-1-(5-fluoropyrimidin-2-yl)-1-methoxypropane-2-sulfonamide or (1R,2S)-N-(4-(2,6-dimethoxyphenyl)-5-(1-methyl-1H-pyrazol-3-yl)-4H-1,2,4-triazol-3-yl)-1-(5-fluoropyrimidin-2-yl)-1-methoxypropane-2-sulfonamide] | 0.69 |
| Cc1cnc([C@@H](C)[C@H](C)S(=O)(=O)Nc2nnc(-c3ccn(C)n3)n2-c2c(F)cccc2F)nc1 [Example 226.0, (2S,3R)-N-(4-(2,6-difluorophenyl)-5-(1-methyl-1H-pyrazol-3-yl)-4H-1,2,4-triazol-3-yl)-3-(5-methyl-2-pyrimidinyl)-2-butanesulfonamide] | 11 |
| COc1cccc(OC)c1-n1c(NS(=O)(=O)[C@@H](C)[C@H](C)c2ncc(C)cn2)nnc1-c1cnn(C)c1 [Example 215.0, (2S,3R)-N-(4-(2,6-dimethoxyphenyl)-5-(1-methyl-1H-pyrazol-4-yl)-4H-1,2,4-triazol-3-yl)-3-(5-methyl-2-pyrimidinyl)-2-butanesulfonamide] | 0.42 |
| COCC1(n2c(NS(=O)(=O)[C@@H](C)[C@@H](OC(C)C)c3ncc(C)cn3)nnc2-c2ccn(C)n2)CC1 [Example 462.0, (1S,2S)-N-(4-(1-(methoxymethyl)cyclopropyl)-5-(1-methyl-1H-pyrazol-3-yl)-4H-1,2,4-triazol-3-yl)-1-(5-methyl-2-pyrimidinyl)-1-(2-propanyloxy)-2-propanesulfonamide] | 4.1 |
| COc1ccccc1-n1c(NS(=O)(=O)Cc2ccc(Cl)cc2)nnc1-c1cccs1 [Example 385.0, 1-(4-Chlorophenyl)-N-(4-(2-methoxyphenyl)-5-(thiophen-2-yl)-4H-1,2,4-triazol-3-yl)methanesulfonamide] | > 12500 |
| COc1cccc(OC)c1-n1c(NS(=O)(=O)[C@@H](C)[C@@H](OC(C)C)c2ncc(C)cn2)nnc1-c1cnn2c1CCC2 [Example 446.0, (1S,2S)-N-(5-(5,6-dihydro-4H-pyrrolo[1,2-b]pyrazol-3-yl)-4-(2,6-dimethoxyphenyl)-4H-1,2,4-triazol-3-yl)-1-isopropoxy-1-(5-methylpyrimidin-2-yl)propane-2-sulfonamide] | 0.74 |
| CO[C@H](c1ncc(Cl)cn1)[C@H](C)S(=O)(=O)Nc1nnc(-c2noc3ccccc23)n1C(C)C [Example 511.0, (1R,2S)-N-(5-(benzo[d]isoxazol-3-yl)-4-isopropyl-4H-1,2,4-triazol-3-yl)-1-(5-chloropyrimidin-2-yl)-1-methoxypropane-2-sulfonamide] | 200 |
| COc1cccc(OC)c1-n1c(NS(=O)(=O)[C@@H](C)[C@H](OC)c2ncc(C)cn2)nnc1-c1ncn(C)n1 [Example 204.0, (1R,2S)-N-(4′-(2,6-dimethoxyphenyl)-1-methyl-1H,4′H-3,3′-bi-1,2,4-triazol-5′-yl)-1-methoxy-1-(5-methyl-2-pyrimidinyl)-2-propanesulfonamide] | 52 |
| O=S(=O)(CCc1ccc(Cl)cc1)Nc1nnc(-c2cccs2)n1-c1ccccc1C(F)(F)F [Example 357.0, 2-(4-Chlorophenyl)-N-(5-(thiophen-2-yl)-4-(2-(trifluoromethyl)phenyl)-4H-1,2,4-triazol-3-yl)ethanesulfonamide] | > 12500 |
| COc1cccc(OC)c1-n1c(NS(=O)(=O)[C@H](C)[C@@H](C)c2cnc(C)cn2)nnc1-c1ccn(C)n1 [Example 281.0, (2R,3S)-N-(4-(2,6-dimethoxyphenyl)-5-(1-methyl-1H-pyrazol-3-yl)-4H-1,2,4-triazol-3-yl)-3-(5-methyl-2-pyrazinyl)-2-butanesulfonamide] | 84 |
| COc1cccc(OC)c1-n1c(NS(=O)(=O)[C@H](C)Cc2ccc(C#N)cn2)nnc1-c1nc(C)cs1 (single isomer, unassigned) [Example 12.0, (2R)-1-(5-Cyano-2-pyridinyl)-N-(4-(2,6-dimethoxyphenyl)-5-(4-methyl-1,3-thiazol-2-yl)-4H-1,2,4-triazol-3-yl)-2-propanesulfonamide or (2S)-1-(5-cyano-2-pyridinyl)-N-(4-(2,6-dimethoxyphenyl)-5-(4-methyl-1,3-thiazol-2-yl)-4H-1,2,4-triazol-3-yl)-2-propanesulfonamide] | 9.4 |
| CCn1ccc(-c2nnc(NS(=O)(=O)[C@@H](C)[C@H](C)c3ncc(F)cn3)n2-c2c(OC)cccc2OC)n1 [Example 191.0, (2S,3R)-N-(4-(2,6-dimethoxyphenyl)-5-(1-ethyl-1H-pyrazol-3-yl)-4H-1,2,4-triazol-3-yl)-3-(5-fluoro-2-pyrimidinyl)-2-butanesulfonamide] | 0.63 |
| COc1cccc(OC)c1-n1c(NS(=O)(=O)C[C@H](OC)c2ccc(Cl)cn2)nnc1-c1ccn(C)n1 (single isomer, unassigned) [Example 376.0, (R)-2-(5-Chloropyridin-2-yl)-N-(4-(2,6-dimethoxyphenyl)-5-(1-methyl-1H-pyrazol-3-yl)-4H-1,2,4-triazol-3-yl)-2-methoxyethanesulfonamide or (S)-2-(5-chloropyridin-2-yl)-N-(4-(2,6-dimethoxyphenyl)-5-(1-methyl-1H-pyrazol-3-yl)-4H-1,2,4-triazol-3-yl)-2-methoxyethanesulfonamide] | 1.7 |
| CCO[C@@H](c1ncc(Cl)cn1)[C@@H](C)S(=O)(=O)Nc1nnc(-c2ccn(C)n2)n1-c1c(OC)cccc1OC (single isomer, unassigned) [Example 354.0, (1S,2R)-1-(5-chloropyrimidin-2-yl)-N-(4-(2,6-dimethoxyphenyl)-5-(1-methyl-1H-pyrazol-3-yl)-4H-1,2,4-triazol-3-yl)-1-ethoxypropane-2-sulfonamide or (1R,25)-1-(5-chloropyrimidin-2-yl)-N-(4-(2,6-dimethoxyphenyl)-5-(1-methyl-1H-pyrazol-3-yl)-4H-1,2,4-triazol-3-yl)-1-ethoxypropane-2-sulfonamide] | 0.75 |
| C=CCO[C@@H](c1ncc(F)cn1)[C@@H](C)S(=O)(=O)Nc1nnc(-c2nc(C)cs2)n1-c1c(OC)cccc1OC (single isomer, unassigned) [Example 168.0, (1S,2R)-1-(Allyloxy)-N-(4-(2,6-dimethoxyphenyl)-5-(4-methylthiazol-2-yl)-4H-1,2,4-triazol-3-yl)-1-(5-fluoropyrimidin-2-yl)propane-2-sulfonamide or (1R,2S)-1-(allyloxy)-N-(4-(2,6-dimethoxyphenyl)-5-(4-methylthiazol-2-yl)-4H-1,2,4-triazol-3-yl)-1-(5-fluoropyrimidin-2-yl)propane-2-sulfonamide] | 30 |
| COc1cccc(OC)c1-n1c(NS(=O)(=O)[C@@H](C)Cc2ncc(F)cn2)nnc1-c1cccnn1 (single isomer, unassigned) [Example 33.0, (2S)-N-(4-(2,6-dimethoxyphenyl)-5-(3-pyridazinyl)-4H-1,2,4-triazol-3-yl)-1-(5-fluoro-2-pyrimidinyl)-2-propanesulfonamide or (2R)-N-(4-(2,6-dimethoxyphenyl)-5-(3-pyridazinyl)-4H-1,2,4-triazol-3-yl)-1-(5-fluoro-2-pyrimidinyl)-2-propanesulfonamide] | 190 |
| COc1cncc(-c2nnc(NS(=O)(=O)[C@@H](C)[C@H](C)c3ncc(C)cn3)n2-c2c(OC)cccc2OC)n1 [Example 202.0, (2S,3R)-N-(4-(2,6-dimethoxyphenyl)-5-(6-methoxy-2-pyrazinyl)-4H-1,2,4-triazol-3-yl)-3-(5-methyl-2-pyrimidinyl)-2-butanesulfonamide] | 2.9 |
| COc1ccccc1-n1c(NS(=O)(=O)Cc2ccc(Cl)cc2)nnc1-c1cccs1 [Example 234.0, 1-(4-chlorophenyl)-N-(4-(2-methoxyphenyl)-5-(2-thiophenyl)-4H-1,2,4-triazol-3-yl)methanesulfonamide] | 340 |
